Test [1] addresses SCD1 (Rattus norvegicus (Rat), UniProt P07308). The test is described as follows: SCD1 enzymatic assay in rat liver microsomes (RLM). Format: biochemical. The protocol: Step 1: Preparation of Rat Liver Microsome (RLM)
Sprague Dawley rats from Charles River (200-225 g) underwent 2-cycle of fast-re-feeding (24-hour fast followed by 24-hour feeding with fat-free high carbohydrate diet, Research Diet, D00042802). The livers were removed and homogenized 1:4 (w/v) with pre-chilled, homogenizing buffer (10 mM Tris-HCl, 0.25 M sucrose, 1 mM EDTA, pH 7.4, supplemented with protease inhibitor cocktail). The homogenate was spun at 12,000×g for 15 min at 4° C. The supernatant was then re-centrifuged at 100,000×g for 60 min at 4° C. The pellet was re-suspended in 2 ml pre-chilled […] potassium phosphate buffer, pH 7.2, 10 mM EDTA at a concentration of 20 mg/ml. The resulting rat liver microsome (RLM) preparation was stored at […].
Step 2: SCD1 Enzymatic Assay in RLM:
The SCD1 enzymatic assay was done in a volume of 50 μL using 10 μg of RLM (prepared as described above) in a 96-well polypropylene plate (enzyme reaction buffer contains 0.1 M K-Phosphate Buffer, 10 mM ATP, 6 mM MgCl2, 1 mM CoA, 1 mM β-NADH, 1.6 mM L-glutathione, 20 μM Stearoyl-CoA). Stearoyl-[9,10-^3H]—CoA (ARC-0390, 1 mCi/mL, 60 Ci/mmol,) was added at a final concentration of 2 μCi/mL. Test compound was then added to the reaction mixture at the selected concentration. After incubation at room temperature for 2 hours, 5 μL 1 N HCl was added to stop the reaction, followed by addition of 25 μL of 10% charcoal. The reaction mixture was then transferred to 96-well Multiscreen plate (Millipore, Cat# MSFCN6B50). [^3H2O] was collected into Opti-plate (PE, Cat #6005290) by centrifuge, at 1,000 rpm for 2 minutes. 150 μL Microscint 40 (PE, cat #6013641) was then added to each well and counted on Topcount for [^3H] counts per minute (cpm). The measured cpm values were fitted with Sigmoidal dose-response curve fit with Graphpad Prism.
(In general: Liver microsomes are a subcellular fraction often used to study metabolism.)

In test [2] the target is T1, SCD1 (Homo sapiens (Human), UniProt O00767). The test is described as follows: SCD1 14C-palmitate assay in A431 cells. Format: cell-based. The conditions noted are these: read-out: A431 cells 14C-PA IC50. As for the experimental part:
Human epithelial carcinoma A431 cells were seeded at 400,000 cells per well in 48-well tissue culture plate and treated with 2 cycles of fasting in low glucose medium (DMEM, Cellgro #10-014-CV, 1 g/L glucose, 2% Charcoal Filtered FBS) for 24 hours; and re-feeding with high glucose medium for 24 hours (DMEM, Cellgro #10-013-CM, 4.5 g/L glucose, 10% Charcoal Filtered FBS and 0.05 mg/mL Lilly Humulin R, Cat.#, HI-210). Prior to running the assay, the cells were washed twice with high glucose medium (400 μL), followed by addition of 250 μL assay buffer (DMEM, 4.5 g/L glucose, 0.05 mg/mL Human Insulin, 0.1% Fatty Acid Free BSA) to each well. Then, 100 μL of assay buffer containing 20 μM Palmitic Acid, 0.05 μCi ^14C Palmitic Acid (Perkin Elmer, NEC075H) and test compound (at selected concentration) was added to each well. The cells were then Incubated at 37° C. and 5% CO2 tissue culture incubator for 4 hours, followed by extensive washes with pre-chilled PBS. The cell plates were then frozen at −20° C. overnight. After thawing out the plates, 100 μL of 1N KOH was added to each well and the plates were incubated at 37° C. for 30 mins. Cell lysates were transferred to 1 mL Eppendorf tubes and incubated at 95° C. for 1 hour, followed by addition of 10 μL formic acid and 220 μL acetonitrile. The tubes were then centrifuged at 12,000 rpm and the supernatant dried under N2 for 2-3 hours. Dried extract was re-suspended in 60 μL hexane and loaded onto TLC plates (pre-coated with 10% AgNO3 in acetonitrile). The TLC plates were placed into glass running chamber containing 200 mL running solution (100 mL running solution: 92.5 mL chloroform, 6 mL methanol, 750 μL acetic acid, 750 μL dH2O). After running, the TLC plates were air dried and scanned on Bioscan AR-2000 for quantification of ^14C-palmitioleate and ^14C-palmitate peaks. Area under the curve of the peaks were used to calculate product/substrate ratio, an index of SCD1 activity.

For test [3], the target named is T1, SCD1. The test is described as follows: SCD1 13C-palmitic acid assay in A431 cells. Format: cell-based. The conditions noted are these: read-out: A431 cells 13C-PA IC50. As for the experimental part:
Human epithelial carcinoma A431 cells were seeded at 100,000 cells/well in complete growth medium (DMEM, Cellgro #10-013-CM, 4.5 g/L glucose, 10% FBS) in the presence of 0.05 mg/mL human insulin (Hannas Pharmaceutical Supply Co Inc, Humanlin 100 U/ml, 4 mg/ml) in 96-well tissue culture plate. […] The cells were then returned to the tissue culture incubator (37° C. and 5% CO2) for 4 hrs. At the end of incubation, the cells were washed three times with 200 μL/well Hanks buffer (HBSS) and then stored at −20° C. until extraction.
For fatty acid extraction, after thawing out the plates, 40 μL of 1N KOH (containing 5 μM of internal standard 7,7,8,8-D4 palmitate) was added to each well and cell plates were incubated at 37° C. for 30 minutes. […] Acetonitrile (100 μL) was then added to extract fatty acids, followed by centrifugation at 3000 rpm for 10 minutes. 75 μL of extract was then transferred to a new glass vial in a 96-well cluster plate. 5 μL was injected for LC/MS analysis for detection of ^13C-palmitic acid and ^13C-palmitoleic acid. Formation of product ^13C-palmitoleic acid was determined as an index of SCD1 activity.
LC/MS analysis was performed as following. An Agilent 1100 Liquid Chromatographic System (Palo Alto, Calif.) consisting of a binary pump, a degasser and an autosampler was used. Separation of free fatty acids was performed on a Zorbax SB—C8 column (2.1×50 mm, particle size=3.5 μm). An isocratic elution was carried out with 10 mM triethylamine acetate in water:acetonitrile (3:7) at a flow rate of 0.3 mL/min. The column temperature was set at 30° C. and the sample injection volume was 5 μL. The LC run cycle was 4 min, A Micromass triple-quadrupole Quattro Micro mass […] (Waters, Beverly, Mass.) was interfaced with the LC system through a Z-spray electrospray ion source and was operated in the negative ion mode. Nitrogen was used as nebulizing gas, desolvation gas and cone curtain gas and argon was chosen as collision gas. The triple quadrupole MS source parameters were set as follows: capillary voltage, 3200V; cone voltage, 25V; extractor 2V, source temperature, 120° C.; desolvation temperature, 300° C.; cone gas flow, 50 L/h; and desolvation gas flow, 700 L/h. […] MassLynx software version 4.0 was used for system control and data processing. The signal of U—^13C-palmitoleic acid was normalized to an internal standard.

Where “and” joins values, the source holds several entries; their conditions need not be identical. Identical values can stand only once.

Chain of SCD1 (Rattus norvegicus (Rat), UniProt P07308) (P07308 whole entry): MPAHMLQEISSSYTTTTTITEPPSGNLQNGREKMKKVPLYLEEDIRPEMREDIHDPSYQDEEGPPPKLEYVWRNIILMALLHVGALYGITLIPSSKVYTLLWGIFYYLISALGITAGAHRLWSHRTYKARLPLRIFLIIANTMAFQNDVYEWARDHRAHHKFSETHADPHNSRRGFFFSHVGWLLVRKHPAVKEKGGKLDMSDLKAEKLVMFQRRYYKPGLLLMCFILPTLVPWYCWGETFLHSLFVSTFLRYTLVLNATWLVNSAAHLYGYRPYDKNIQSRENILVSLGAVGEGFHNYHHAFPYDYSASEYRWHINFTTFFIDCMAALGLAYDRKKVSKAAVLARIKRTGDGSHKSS
T1 sequence (O00767 whole entry): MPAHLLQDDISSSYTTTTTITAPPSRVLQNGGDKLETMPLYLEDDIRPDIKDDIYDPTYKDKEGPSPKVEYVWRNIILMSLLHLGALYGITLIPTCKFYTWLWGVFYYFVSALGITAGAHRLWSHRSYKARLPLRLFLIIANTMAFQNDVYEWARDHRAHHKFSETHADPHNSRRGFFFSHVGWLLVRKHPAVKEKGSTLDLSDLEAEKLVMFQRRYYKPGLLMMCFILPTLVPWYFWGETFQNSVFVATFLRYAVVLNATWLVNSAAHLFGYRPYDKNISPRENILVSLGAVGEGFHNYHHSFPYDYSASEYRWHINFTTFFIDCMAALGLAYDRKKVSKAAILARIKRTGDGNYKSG

A word on the IC50: it is the concentration needed to halve the response being measured. The inhibition is the share of the control response that was lost under treatment. Consider `Cc1csc(NC(=O)N2CCC(n3ccc4ccccc43)CC2)n1` [Compound 4, 4-(1H-indol-1-yl)-N-(4-methylthiazol-2-yl)-piperidine-1-carboxamide], for which the IC50 against SCD1 [1] is 573 nM and 502 nM; at SCD1 [2], 209 nM and 325 nM. This molecule yielded an inhibition at 1 µM against SCD1 [1] (1 μM test compound) of 70%.

`CNC(=O)c1cccc(NC(=O)N2CCC(c3noc4ccc(F)cc34)CC2)c1` [Compound 5]: the half-maximal inhibitory concentration (IC50) against SCD1 [1] is 413 nM; on SCD1 [2], 711 nM and 726 nM. The molecule also gave an inhibition at 1 µM against SCD1 [1] (1 μM test compound) of 74%.

With `Cc1csc(NC(=O)N2CCC(N3CCCc4ccccc43)CC2)n1` [Compound 13, 4-(3,4-dihydroquinolin-1(2H)-yl)-N-(4-methylthiazol-2-yl)piperidine-1-carboxamide], the IC50 against SCD1 [1] was 491 nM; at SCD1 [2] it was 848 nM. Further, the inhibition at 1 µM against SCD1 [1] (1 μM test compound) was found to be 81%.

Consider `Cc1csc(NC(=O)N2CCC(N3CCc4ccccc43)CC2)n1` [Compound 3, 4-(indolin-1-yl)-N-(4-methylthiazol-2-yl)piperidine-1-carboxamide], for which the IC50 against SCD1 [1] is 161 nM and 145 nM. Besides, at SCD1 [1] (1 μM test compound), the “% Inh. @ 1 μM” value is recorded as 76% and the inhibition at 1 µM is 70%. In addition, the IC50 at SCD1 [2] is 804 nM and 379 nM.

Take `O=C(Nc1ncc(CCO)s1)N1CCC(c2noc3ccc(F)cc23)CC1` [Compound 55, 4-(5-fluorobenzo[d]isoxazol-3-yl)-N-(5-(2-hydroxyethyl)thiazol-2-yl)piperidine-1-carboxamide]: the results for the IC50 against SCD1 [1] and on SCD1 [3] were 11 nM and 30 nM, respectively. This molecule also displayed an inhibition at 1 µM against SCD1 [1] (1 μM test compound) of 92%.

Consider `O=C(Nc1nc(CCO)cs1)N1CCC(c2noc3ccc(F)cc23)CC1` [Compound 54, 4-(5-fluorobenzo[d]isoxazol-3-yl)-N-(4-(2-hydroxyethyl)thiazol-2-yl)piperidine-1-carboxamide], for which the half-maximal inhibitory concentration (IC50) is 29 nM at SCD1 [1] and 38 nM on SCD1 [3]. On SCD1 [1] (1 μM test compound), the inhibition at 1 µM is 95%.

Take `CNC(=O)c1cccc(NC(=O)N2CCC(n3ccc4ccccc43)CC2)c1` [Compound 2, 4-(1H-indol-1-yl)-N-(3-(methylcarbamoyl)phenyl)piperidine-1-carboxamide]: the IC50 on SCD1 [1] was 170 nM; on SCD1 [2] it was 376 nM and 384 nM. For the same molecule, the inhibition at 1 µM against SCD1 [1] (1 μM test compound) was found to be 84%.

Turning to `O=C(Nc1nc2c(s1)CN(CCO)CC2)N1CCC(N2CCc3ccc(F)cc32)CC1` [Compound 38, 4-(6-fluoroindolin-1-yl)-N-(5-(2-hydroxyethyl)-4,5,6,7-tetrahydrothiazolo[5,4-c]pyridin-2-yl)piperidine-1-carboxamide], the IC50 against SCD1 [1] was 770 nM; on SCD1 [3], 440 nM.

Turning to `CCCc1nc2ccc(NC(=O)N3CCC(c4noc5ccc(F)cc45)CC3)cc2s1` [Compound 9, 4-(5-fluorobenzo[d]isoxazol-3-yl)-N-(2-propylbenzo[d]thiazol-6-yl)piperidine-1-carboxamide], the half-maximal inhibitory concentration (IC50) against SCD1 [1] turned out to be 444 nM; on SCD1 [2] it was 640 nM. The molecule also gave an inhibition at 1 µM against SCD1 [1] (1 μM test compound) of 79%.

For `CNC(=O)c1cccc(NC(=O)N2CCC(N3CCc4ccccc43)CC2)c1` [Compound 12, 4-(indolin-1-yl)-N-(3-(methylcarbamoyl)phenyl)piperidine-1-carboxamide], the IC50 against SCD1 [1] stood at 151 nM; on SCD1 [2] it was 755 nM. This molecule had an inhibition at 1 µM at SCD1 [1] (1 μM test compound) of 82%.

As for `O=C1OCc2ccc(NC(=O)N3CCC(N4CCc5ccc(F)cc54)CC3)cc21` [Compound 47, 4-(6-fluoroindolin-1-yl)-N-(3-oxo-1,3-dihydroisobenzofuran-5-yl)piperidine-1-carboxamide], the IC50 turned out to be 17 nM against SCD1 [1] and 27 nM on SCD1 [3]. On SCD1 [1] (1 μM test compound), this molecule came in with an inhibition at 1 µM of 83%.

For `COC(=O)c1cnc(NC(=O)N2CCC(N3CCc4ccc(F)cc43)CC2)s1` [Compound 18, methyl 2-(4-(6-fluoroindolin-1-yl)piperidine-1-carboxamido)thiazole-5-carboxylate], the concentration for half-maximal inhibition (IC50) against SCD1 [1] came to 363 nM; on SCD1 [3], 221 nM. Moreover, at SCD1 [1] (1 μM test compound), the inhibition at 1 µM came to 62%.

As for `O=C(Nc1nc(CCO)cs1)N1CCC(N2CCc3ccc(F)cc32)CC1` [Compound 29, 4-(6-fluoroindolin-1-yl)-N-(4-(2-hydroxyethyl)thiazol-2-yl)piperidine-1-carboxamide], the IC50 against SCD1 [1] was 20 nM; on SCD1 [3], 18 nM. Also, the inhibition at 1 µM on SCD1 [1] (1 μM test compound) is 94%.

Take `Cc1csc(NC(=O)N2CCC(N3CCc4ccc(F)cc43)CC2)n1` [Compound 20, 4-(6-fluoroindolin-1-yl)-N-(4-methylthiazol-2-yl)piperidine-1-carboxamide]: the IC50 against SCD1 [1] came to 26 nM; at SCD1 [3] it was 21 nM. Also, the inhibition at 1 µM against SCD1 [1] (1 μM test compound) came to 98%.

As for `NC(=O)c1cccc(NC(=O)N2CCC(c3noc4ccc(F)cc34)CC2)c1` [Compound 17, N-(3-carbamoylphenyl)-4-(5-fluorobenzo[d]isoxazol-3-yl)piperidine-1-carboxamide], the IC50 against SCD1 [1] is 208 nM; on SCD1 [3], 274 nM. The molecule also returned an inhibition at 1 µM against SCD1 [1] (1 μM test compound) of 84%.

As for `O=C(Nc1nc2c(s1)CNCC2)N1CCC(N2CCc3ccc(F)cc32)CC1` [Compound 36, 4-(6-fluoroindolin-1-yl)-N-(4,5,6,7-tetrahydrothiazolo[5,4-c]pyridin-2-yl)piperidine-1-carboxamide], the figures for the IC50 on SCD1 [1] and on SCD1 [3] were 29 nM and 16 nM, respectively. Moreover, on SCD1 [1] (1 μM test compound), the inhibition at 1 µM worked out at 91%.
